According to patent publication US20260055061A1, “HALOPHTHALIMIDE COMPOUNDS AND METHODS OF USE AGAINST TBI, INFLAMMATORY DISORDER, AUTOIMMUNE DISORDER, NEURODEGENERATIVE DISEASE OR VIRAL INFECTION” (The United States of America, as represented by the …, priority 2022, published 2026):

How the values were obtained:
[1] = tested on: LPS-induced nitrite in RAW 264.7 cells; assay: LPS-induced nitrite production in RAW 264.7 cells (Griess reagent / fluorometric kit); format: cell-based, mouse; conditions: for nitrite level, % of vehicle control: LPS-challenged RAW 264.7 cells, percentage of vehicle control value (control = 100%), mean ± S.E.M., n = 3; for Nitrite, % Change versus Control (± s.e.m.): 10 uM, LPS-activated RAW 264.7 cells; for nitrite levels (in words): six-compound pomalidomide grouping, RAW cell assay, FIGS. 12-13
Method: Nitrite ion detection in drug treated […] cell culture media: To measure the levels of nitrite ion NO2—) the Griess Reagent System (Promega, Madison, WI, Cat #G2930) was utilized. The protocol followed was that recommended by the manufacturer. In brief a NO2— ion standard curve was prepared in culture media of the same composition to that used for the cell culture study. The concentration range of the standard curve was from 1.5 µM to 100 µM. Equal volumes (50 μL) of standards and unknown samples were added to clear 96 well plates in duplicate. Then 50 μL of sulfanilamide solution was added to each well and the plate was covered and incubated in the dark for 10 min. After the incubation period 50 μL of N-1-napthylethylenediamine dihydrochloride solution was added to each well and the plate was incubated in dark for a further 10 min. After this incubation, the plate was read at 550 nm on a SPECTRAmax PLUS plate reader and the absorbances were used to generate a NO2— standard curve and the NO2— ion levels of the unknown samples are determined using SoftMax Pro V5, Molecular Devices.
Most neurons are highly vulnerable to RNS and ROS. Nitric oxide (NO) is one of RNSs, which is very short lived and cannot be readily measured. However, nitrite is a stable end product of nitric oxide metabolism. Therefore, nitrite acts as a surrogate measure of NO. The Griess Reagent System (Promega Corporation, Madison, WI) can be applied to measure nitrite levels in culture media following the manufacturer's protocol, and this system was used in the present study as it is a more sensitive assay compared to quantifying actions on TNF-α by ELISA assay. […] This challenge induces high level of TNF-α protein accompanied by a robust generation of nitrite.
(§1) Cells were propagated as described by ATCC guidelines.

TNF-α = assay: LPS-induced TNF-α production in RAW 264.7 cells (ELISA); format: cell-based, mouse; conditions: for TNF-α % Δ: LPS-challenged RAW 264.7 cells, percentage of vehicle control value (control = 100%), mean ± S.E.M., n = 3; for TNF-a, % Change versus Control (± s.e.m.): 10 uM, LPS-activated RAW 264.7 cells
Method: Enzyme-linked immunosorbent assay for TNF-α protein: Media TNF-α levels were measured by use of the Biolegend ELISA MAX Set Delux ELISA (#430904). The protocol used was that recommended by the manufacturer. In brief, a day prior to performing the assay, a 96 well plate was coated with a capture antibody directed against TNF-α. The following day the assay plate was washed and blocked with the kit blocking agent for 1 h while being mixed on a plate shaker at 200 rpm (all incubations were mixed at 200 rpm unless stated otherwise). A TNF-α protein standard curve was prepared in the assay diluent following the kit instructions and unknown media samples were likewise diluted in the same assay diluent. After blocking, the plate was washed and then both the standards and unknown media samples were added to the plate in duplicate. The standards and unknown samples were incubated for 2 h. After the incubation, the plate was washed and then the biotin labeled detection antibody was added to each well and incubated for a further 1 h. After this incubation, the avidin-HRP conjugate complex was added to each well and incubated for 30 min. The plate was washed and the chromogenic substrate 3,3′,5,5′-tetramethylbenzidine solution was added to each well. At this point the plate was covered and incubated in the dark for 15 min, with no mixing. After 15 min the chromogenic reaction was stopped by the addition of 2 N H2SO4 and the absorbance was read at 450 nm and for background subtractions at 570 nm, on a SPECTRAmax PLUS plate reader. The absorbances were used to generate a TNF-α a protein standard curve and the protein levels in the unknown samples were determined using SoftMax Pro V5, Molecular Devices.
as §1

RAW 264.7 cells = assay: Cell viability of drug treated RAW 264.7 cells (CellTiter 96 AQueous One, MTS); conditions: 10 uM; LPS-activated RAW 264.7 cells
Method: Assessments of drug anti-TNF-α and nitric oxide generation in RAW 264.7 cells: RAW 264.7 cells were purchased from ATCC Manassas, VA, USA). The cells were grown in DMEM media (Invitrogen, DMEM, high glucose, GlutaMAX Supplement, pyruvate, #10569-010) supplemented with 10% FBS (Invitrogen, Fetal Bovine Serum, qualified, heat inactivated, #16140-071) with penicillin and streptomycin (Invitrogen, Penicillin-Streptomycin (10,000 U/mL), #15140-122) and were maintained at 37 C and 5% CO2. The cells were grown to 75%-85% confluence on 10 cm plates (corning-Fal-con, #353003) following the protocol described by ATTC. to assess for drug effects on LPS-induced markers of inflammation, namely TNF-α protein and nitrite ion levels (NO2, a stable end-product of nitric oxide metabolism) cells were seeded into 24 well (VWR, #10062-896) at a density of 200×10^3 cells per well. On each plate there was one blank well where no cells were added yet culture media in the well was treated similarly to wells with cells (n=1). The blank well media was used for background subtraction for various downstream assays. twenty-four hours after seeding the plate the seeding media was replaced with fresh media. Two hours after this the cells were exposed to a range of concentrations of drug test-compound(s) dissolved in 100% tissue culture grade dimethyl sjloxide (DMSO, SIGMA #D2650). Drug stocks were prepared in a 200 times more concentrated stock in DMSO. The final concentration of DMSO added to the cells was 0.5%. The effects of each concentration of drug were assessed in 4 wells per concentration in the 24 well plate (n=3 #-4). On each plate one set of wells were assigned as drug-vehicle control (i.e. DMSO), one test compound was assessed on one 24 well plate. […] One hour after the drugs were added the cells were challenged with lipopolysaccharide (LPS, SIGMA, serotype 055:B5) at a final concentration of 60 ng/ml. Twenty to twenty-four hours after the cells were challenged with LPS the culture media was collected and utilized for the measurement of markers of inflammation.
Cellular viability assessment of drug treated RAW 264.7 cells: RAW 264.7 cell viability was determined by use of the CellTiter 96 AQueous One Solution Cell Proliferation Assay (Promega, Madison, WI). Changes in cellular health status were determined by use of indirect measures related to the formation of a colored tetrazolium dye product that can be measured spectrophotometrically at 490 nm. An increase in absorbance at 490 nm is indicative of an increase in numbers of healthy cells; similarly a reduction in absorbance is indicative of a reduction of healthy cells. After the culture media was harvested for use in TNF-α and NO2— ion assays, the media was replaced with 0.5 mL of fresh media plus 100 μL of the cell viability reaction mixture. After a 20-30 min incubation at 37° C. with 5% CO2 the absorbance at 490 nm was obtained using an infinite M200 PRO plate reader (TECAN, USA).
Statistical analyses for RAW-derived assays: Data are expressed as a percentage change from the DMSO-vehicle control measurements. Measurements are expressed as mean±standard errors, where the n number represents the number of wells in a 24 well plate. Due to the presence of one blank control well on each plate, for some drug concentrations the n number is 3 # and not 4. Statistical comparisons were undertaken by use of a One-Way ANOVA with appropriate Bonferroni corrections for multiple comparisons, as required (GraphPad InStat Version 3.05). P values of <0.05 are considered to be of statistical significance.
RAW 264.7 cell culture: RAW 264.7 mouse cells were purchased from ATCC (Manassas, VA, USA) and grown in DMEM media supplemented with 10% FCS, penicillin 100 U/ml and streptomycin 100 μg/ml (ThermoFisher Scientific, Asheville, NC, USA). The cells were maintained at 37° C. and 5% CO2.

SMILES	Nitrite, % Change versus Control (± s.e.m.) [1] [%]	TNF-a, % Change versus Control (± s.e.m.) (TNF-α) [%]	Viability, % Change versus Control (± s.e.m.) (RAW 264.7 cells) [%]	also measured
O=C1c2c(F)ccc(F)c2C(=O)N1C1CC2CCC1C2 (stereo not drawn) [Compound 21, 2-Exo-(bicyclo[2.2.1]heptan-2-yl)-4,7-difluoroisoindoline-1,3-dione]	–	–	–	nitrite level, % of vehicle control ([1]; 1 μM): 98 ± 7%; nitrite level, % of vehicle control ([1]; 10 μM): 127 ± 2%; nitrite level, % of vehicle control ([1]; 30 μM): 83 ± 10%; TNF-α % Δ (TNF-α; 1 μM): 90 ± 1%; TNF-α % Δ (TNF-α; 10 μM): 90 ± 1%
O=C1c2c(F)ccc(F)c2C(=O)N1C1CC2CCC1C2 (stereo not drawn) [Compound 22, 2-Endo-(bicyclo[2.2.1]heptan-2-yl)-4,7-difluoroisoindoline-1,3-dione]	–	–	–	nitrite level, % of vehicle control ([1]; 1 μM): 103 ± 5%; nitrite level, % of vehicle control ([1]; 10 μM): 104 ± 2%; nitrite level, % of vehicle control ([1]; 30 μM): 50 ± 3%; TNF-α % Δ (TNF-α; 1 μM): 102 ± 5%; TNF-α % Δ (TNF-α; 10 μM): 87 ± 5%
O=C1NC(=S)CCC1N1C(=O)c2c(F)ccc([N+](=O)[O-])c2C1=O (stereo not drawn) [Compound 24, 4-fluoro-7-nitro-2-(2-oxo-6-thioxopiperidin-3-yl) isoindoline-1,3-dione]	4.7 ± 1.0	51.3 ± 3.8	–	–
CC(C)Nc1ccc(F)c2c1C(=O)N(C1CCC(=O)NC1=O)C2=O (stereo not drawn) [Compound 25, 2-(2,6-dioxopiperidin-3-yl)-4-fluoro-7-(isopropylamino) isoindoline-1,3-dione]	110.1 ± 4.4	87.1 ± 3.4	99.9 ± 0.4	–
Nc1ccc(F)c2c1C(=O)N(C1CCC(=O)NC1=O)C2=O (stereo not drawn) [Compound 26, 4-amino-2-(2,6-dioxopiperidin-3-yl)-7-fluoroisoindoline-1,3-dione]	90.3 ± 3.7	–	100.9 ± 1.1	–
CC(C)Nc1ccc(F)c2c1C(=O)N(C1CCC(=S)NC1=O)C2=O (stereo not drawn) [Compound 27, 4-fluoro-7-(isopropylamino)-2-(2-oxo-6-thioxopiperidin-3-yl) isoindoline-1,3-dione]	74.8 ± 1.2	94.4 ± 2.8	112.3 ± 1.7	–
Nc1ccc(F)c2c1C(=O)N(C1CCC(=S)NC1=O)C2=O (stereo not drawn) [Compound 29, 4-amino-7-fluoro-2-(2-oxo-6-thioxopiperidin-3-yl) isoindoline-1,3-dione]	59.0 ± 1.6	–	112.4 ± 2.9	–
Nc1c(F)ccc2c1C(=O)N(C1CCC(=O)NC1=O)C2=O (stereo not drawn) [Compound 31, 4-amino-2-(2,6-dioxopiperidin-3-yl)-5-fluoroisoindoline-1,3-dione]	–	–	–	nitrite levels (in words) [1]: surpassed by counterparts 3′ and 26
Nc1c(F)ccc2c1C(=S)N(C1CCC(=S)NC1=O)C2=O (stereo not drawn) [Compound 32, 4-amino-5-fluoro-2-(2-oxo-6-thioxopiperidin-3-yl)-3-thioxoisoindolin-1-one]	–	–	–	nitrite levels (in words) [1]: modest efficacy
